Laboratory results published in paper PMC12650144, “Interactive Role of the DHPR β1a SH3 Domain in Skeletal Muscle Excitation–Contraction Coupling” (Biomolecules, 2025).
Where no end group is shown, it is not given here.

Key:
[1] = biological target: T1, DHPR β1a subunit (full-length, β1a-FL) (Mus musculus, UniProt Q8R3Z5); assay: Tryptophan fluorescence quenching binding to full-length β1a; conditions: excitation 280 nm, emission 340 nm, full-length β1a titrated with loop/peptide, nonlinear regression, read-out: Binding affinity to β1a subunit (Kd)
T1 construct: full-length β1a (β1a-FL); polyhistidine-tagged ubiquitin (N, cleaved yes); made in house; host or cells: Escherichia coli BL21
T1 sequence (Q8R3Z5 1-524 isoform Q8R3Z5-4): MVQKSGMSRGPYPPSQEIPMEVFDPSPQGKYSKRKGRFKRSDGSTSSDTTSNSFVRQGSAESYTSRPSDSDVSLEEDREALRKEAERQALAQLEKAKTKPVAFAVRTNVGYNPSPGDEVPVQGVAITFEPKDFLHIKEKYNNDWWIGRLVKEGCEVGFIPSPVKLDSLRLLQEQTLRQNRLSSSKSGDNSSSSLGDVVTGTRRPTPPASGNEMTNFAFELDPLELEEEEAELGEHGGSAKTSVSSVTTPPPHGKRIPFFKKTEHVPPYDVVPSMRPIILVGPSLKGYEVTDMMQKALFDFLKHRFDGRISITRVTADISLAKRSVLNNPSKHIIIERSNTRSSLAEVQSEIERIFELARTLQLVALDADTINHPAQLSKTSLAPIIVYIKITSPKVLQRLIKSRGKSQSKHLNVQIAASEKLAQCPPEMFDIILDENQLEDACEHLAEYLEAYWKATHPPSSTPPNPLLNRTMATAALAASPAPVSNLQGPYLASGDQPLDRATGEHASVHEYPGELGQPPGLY
Description: (§1) The mouse β1a and β2a subunits (NCBI reference sequences—NM_031173 and NM_023116), the β1a-SH3 domain (β1a residues V101-P272), and the α1s II-III loop (NCBI reference sequence—X05921, residues E666-L791) were amplified by PCR. Each PCR product was cloned in-frame downstream of a polyhistidine-tagged ubiquitin sequence in the plasmid pHUE [27]. The plasmids were transferred into Escherichia coli BL21, and expression of fusion protein was induced by addition of 0.1 mM IPTG (isopropyl β-D-1thiogalactoside) to the culture medium. The His-tagged proteins were purified by chromatography on Ni-agarose. Ubiquitin was removed from the N-terminal end of the recombinant proteins by digestion with a His-tagged ubiquitin-dependant protease. The recombinant β-subunit proteins and the II-III loop were further purified by preparative electrophoresis using a Bio-Rad model 491 prep cell. The final samples were dialysed into a buffer containing 50 mM sodium phosphate pH 8 and 300 mM NaCl (buffer A) and stored at −70 °C.
(§2) Equilibrium dissociation constants for β1a and β2a subunit and β1a-SH3 domain binding to the α1s II-III loop and its peptides were determined with a Perkin-Elmer LS 50B6 Spectrofluorimeter. Changes in the intrinsic fluorescence of the tryptophan residues of the β1a subunit or the β1a-SH3 domain was monitored while titrating the α1s II-III loop or its peptides. Excitation was at 280 nm, and fluorescence emission was monitored at 340 nm. Data was corrected for dilution effects and for intrinsic fluorescence of the II-III loop or its peptides and fitted with nonlinear regression using GraphPad Prism software (6.0), as previously described.

[2] = biological target: T2, β1a-SH3 domain (residues 101–272) (Mus musculus, UniProt Q8R3Z5); assay: Tryptophan fluorescence quenching binding to β1a SH3 domain; conditions: excitation 280 nm, emission 340 nm, refolded β1a-SH3, read-out: Binding affinity to β1a–SH3 domain (residues 101–272) (Kd)
T2 construct: The β1a SH3 protein (residues V101-P272) was purified by IMAC; polyhistidine-tagged ubiquitin (N, cleaved yes); made in house; host or cells: Escherichia coli BL21
T2 sequence (Q8R3Z5 101-272 isoform Q8R3Z5-4): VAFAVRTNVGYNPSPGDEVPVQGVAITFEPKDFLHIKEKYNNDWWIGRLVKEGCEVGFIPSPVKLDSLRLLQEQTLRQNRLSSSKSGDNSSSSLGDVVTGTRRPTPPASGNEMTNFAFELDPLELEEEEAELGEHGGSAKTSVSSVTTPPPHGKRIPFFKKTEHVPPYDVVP
Description: as §1
The β1a SH3 protein (residues V101-P272) was purified by IMAC (immobilized metal affinity chromatography) under denaturing conditions (6M guanidinium HCl) using Ni-NTA resin. The purity of the protein was assessed by SDS page gels (Supplementary Figure S1). The purified protein was then refolded by dialysing against buffer A, and the folded structure was checked by circular dichroism (Supplementary Figure S2). The purified and refolded protein was stored (−70 °C) at concentrations of ~1μM. It was not possible to directly assess the aggregation state of the β1a SH3 protein construct at 1μM as the SEC UV peak absorbance was below detectable levels.
as §2

[3] = tested on: DHPRβ1a-null myotubes expressing β1a constructs; assay: Depolarization (KCl)-induced Ca2+ release in Fura-2-loaded myotubes; assay type: cell-based, mouse; conditions: Fura-2-AM-loaded myotubes expressing the construct; sigmoidal dose–response fit
Description: All animal procedures were carried out in accordance with the guidelines of Harvard Medical Area Standing Committee on Animals under experimental protocol number 2589, approved on 01 Sept 2014. Primary myoblasts from DHPRβ1a-null mouse skeletal muscles were isolated from the hindlimb of neonatal mice, as described elsewhere. Stably transduced cell lines were then obtained by infection of primary β-null myoblasts with virion particles carrying the β1a genes at a multiplicity of infection (MOI) of 0.5 and then selected with […] Puromycin for 2 weeks, as described previously. Cells expressing mouse Wtβ1a or β1a-loop chimera subunit were then grown and differentiated in 96-well plates, as described previously. […] Fura-2 images were acquired with a 40 objective (Olympus, UApo/340), and fluorescent emission at 510 nm was then captured from regions of interest within each myotube at 33 frames/s using Piper-controlled acquisition software (Stanford Photonics) and is expressed as the ratio of signal collected at alternating 340 nm/380 nm excitation wavelengths. […] Fluo-4 fluorescent images were acquired using a 60 objective, and emission at 510 nm was then collected from regions of interest from individual cells excited at 490 nm and is expressed as arbitrary fluorescent units.

[4] = tested on: L-type Ca2+ current (DHPR channel) in β-null myotubes; assay: L-type Ca2+ current, whole-cell patch clamp in cultured myotubes; assay type: cell-based, mouse; conditions: mean ± SE
Description: All animal procedures were carried out in accordance with the guidelines of Harvard Medical Area Standing Committee on Animals under experimental protocol number 2589, approved on 01 Sept 2014. Primary myoblasts from DHPRβ1a-null mouse skeletal muscles were isolated from the hindlimb of neonatal mice, as described elsewhere. Stably transduced cell lines were then obtained by infection of primary β-null myoblasts with virion particles carrying the β1a genes at a multiplicity of infection (MOI) of 0.5 and then selected with […] Puromycin for 2 weeks, as described previously. Cells expressing mouse Wtβ1a or β1a-loop chimera subunit were then grown and differentiated in 96-well plates, as described previously. Calcium imaging was performed 5–6 days after differentiation in myotubes loaded with 5μM Fura-2-AM or 2μM Fluo-4 (Molecular Probes) in imaging buffer (125 mM NaCl, 5 mM KCl, 2 mM CaCl2, 1.2 mM MgSO4, 6 mM glucose, and 25 mM HEPES-Tris, pH 7.4). Cell membrane depolarization was performed by 5s of perfusion with 5–7 volumes of imaging buffer containing increasing concentrations of KCl. To preserve osmolarity of the depolarization buffer, the increased K concentration was compensated with an equivalent reduction in total NaCl concentration. Sarcoplasmic reticulum Ca^2+ content of Fura-2-AM-loaded cultured myotubes was estimated from the peak fluorescent amplitude of the Ca^2+ transient induced by 40 mM caffeine stimulation in the presence of 1μM thapsigargin (Tg) and in the absence of extracellular Ca^2+ [34, 35]. Extracellular Ca^2+ entry at rest was estimated from the rate of dye quench by Mn^2+ entry in myotubes loaded with 5μM Fura-2-AM in the presence and in the absence of 10μM KB-R7943 (glycerol, 2-(2-(4-(4-nitrobenzyloxy) phenyl)ethyl)-isothiourea methane sulfonate), as described previously. Cells were then imaged at 360 nm (5 nm) with an intensified 10-bit digital CCD camera (XR-Mega-10, Stanford Photonics, Stanford, CA, USA) using aDG4 multiwavelength light source. Fura-2 images were acquired with a 40 objective (Olympus, UApo/340), and fluorescent emission at 510 nm was then captured from regions of interest within each myotube at 33 frames/s using Piper-controlled acquisition software (Stanford Photonics) and is expressed as the ratio of signal collected at alternating 340 nm/380 nm excitation wavelengths. […] Fluo-4 fluorescent images were acquired using a 60 objective, and emission at 510 nm was then collected from regions of interest from individual cells excited at 490 nm and is expressed as arbitrary fluorescent units.
The macroscopic Ca^2+ current was determined using the same equipment and protocols previously described (PMID: 29212769). […]

[5] = biological target: α1s C (α1s II-III loop C region peptide, residues 720–765); assay: Fluorescence binding of β isoforms and chimeras to α1s C peptide; conditions: β construct titrated with α1s C peptide
Description: as §1, with “The recombinant β-subunit proteins and the II-III loop were further purified by preparative electrophoresis using a Bio-Rad model 491 prep cell. The final samples were dialysed into a buffer containing 50 mM sodium phosphate pH 8 and 300 mM NaCl (buffer A) and stored at −70 °C.” left out
as §2

Row | Substance | Kd [1] | Kd [2] | also measured
1 | KDPYPSADFPGDD [α1s C binding peptide 1 (sP1)] | 3.6 ± 0.2 µM | 2.6 ± 0.4 µM | 
2 | KDPYPSPDFPGDD [sP1 A⟶P mutant] | 4.5 ± 0.3 µM | 2.3 ± 0.2 µM | 
3 | KDPYPSADTPGDD [sP1 F⟶T mutant] | 4.6 ± 0.4 µM | 4.6 ± 0.3 µM | 
4 | EEPEMPVGPRPRPLSEL [α1c C binding peptide 2 (cP2)] | 4.6 ± 0.3 µM | 3.6 ± 0.3 µM | 
5 | KDPYPSADFTGDD [sP1 P⟶T mutant] | 22 ± 2 µM | 19 ± 2 µM | 
6 | LKVDEFESNVNEVKDPYPSADFPGDDEEDEPEIPVSPRPRPLAELQ [α1s II–III loop C region (α1s C)] |  | 3.6 ± 0.6 µM | 
7 | β1a: full-length mouse DHPR β1a subunit; recombinant or expressed in β-null myotubes |  |  | EC50 [3]: 6680 ± 450 µM; V1/2 ([4]; potential at which G = 1/2 Gmax, n = 22 / 21): 14.7 ± 0.88 mV; Vr ([4]; reversal potential, n = 22 / 21): 84.8 ± 0.35 mV; k ([4]; slope parameter, n = 22 / 21): 6.0 ± 0.17 mV; Gmax ([4]; β-null myotubes expressing the construct, external 10 mM CaCl2, n = 22 (Wt-β1a), n = 21 (β1a-RT loop)): 453 ± 33.0 pS/pF; Kd [5]: 4.9 ± 0.6 µM
8 | DEPEIPVSPRPRPLAEL [α1s C binding peptide 2 (sP2)] | 5.4 ± 0.9 µM | 3.8 ± 0.2 µM | 
9 | β2a: mouse DHPR β2a (cardiac isoform) subunit, recombinant |  |  | Kd for binding to α1s C [5]: no measurable binding
10 | KSPYPNPETTGEE [α1c C binding peptide 1 (cP1)] | 14 ± 2 µM | 19 ± 4 µM | 
11 | KDPYPSADFPGED [sP1 D⟶E mutant] | 15 ± 2 µM | 17 ± 1 µM | 
